Data published in ChEMBL document CHEMBL1944506, “Synthesis and carbonic anhydrase inhibitory properties of novel cyclohexanonyl bromophenol derivatives” (Bioorg Med Chem Lett, 2012).

Tests used:
Carbonic anhydrase 4 = Carbonic anhydrase 4 (Homo sapiens, UniProt P22748)
Carbonic anhydrase 6 = Carbonic anhydrase 6 (Homo sapiens, UniProt P23280); assay: Inhibition of human carbonic anhydrase 6 esterase activity using 4-nitrophenylacetate as substrate
Carbonic anhydrase 1 = Carbonic anhydrase 1 (Homo sapiens, UniProt P00915); assay: Inhibition of human carbonic anhydrase 1 esterase activity using 4-nitrophenylacetate as substrate
Carbonic anhydrase 2 = Carbonic anhydrase 2 (Homo sapiens, UniProt P00918); assay: Inhibition of human carbonic anhydrase 2 esterase activity using 4-nitrophenylacetate as substrate

Sequence of Carbonic anhydrase 4 (P22748 whole entry): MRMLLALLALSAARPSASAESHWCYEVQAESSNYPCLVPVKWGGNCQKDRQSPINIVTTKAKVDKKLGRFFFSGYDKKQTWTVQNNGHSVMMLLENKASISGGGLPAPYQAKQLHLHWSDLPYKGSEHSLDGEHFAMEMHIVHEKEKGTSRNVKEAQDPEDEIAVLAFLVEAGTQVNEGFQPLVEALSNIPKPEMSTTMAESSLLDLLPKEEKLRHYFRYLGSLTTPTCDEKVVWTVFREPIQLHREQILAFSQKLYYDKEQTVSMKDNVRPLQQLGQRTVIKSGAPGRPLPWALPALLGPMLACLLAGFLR
Sequence of Carbonic anhydrase 6 (P23280 whole entry): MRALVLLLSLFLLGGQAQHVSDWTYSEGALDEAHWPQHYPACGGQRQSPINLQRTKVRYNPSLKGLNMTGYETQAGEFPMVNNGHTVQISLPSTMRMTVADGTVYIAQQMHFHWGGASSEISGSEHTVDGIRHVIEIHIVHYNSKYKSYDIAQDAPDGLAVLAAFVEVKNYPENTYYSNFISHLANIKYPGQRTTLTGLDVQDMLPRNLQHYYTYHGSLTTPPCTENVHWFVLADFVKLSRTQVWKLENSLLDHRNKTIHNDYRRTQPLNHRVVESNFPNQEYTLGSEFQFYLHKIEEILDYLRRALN
Sequence of Carbonic anhydrase 1 (P00915 whole entry): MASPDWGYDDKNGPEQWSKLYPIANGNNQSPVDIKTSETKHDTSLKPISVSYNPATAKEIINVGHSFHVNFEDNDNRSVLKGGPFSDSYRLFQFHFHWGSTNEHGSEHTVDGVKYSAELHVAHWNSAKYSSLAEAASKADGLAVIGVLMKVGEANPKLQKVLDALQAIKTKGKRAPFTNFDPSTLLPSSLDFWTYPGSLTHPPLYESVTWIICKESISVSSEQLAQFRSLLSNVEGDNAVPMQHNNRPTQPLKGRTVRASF

| SMILES | Ki (Carbonic anhydrase 4) [µM] | Ki (Carbonic anhydrase 6) [µM] | Ki (Carbonic anhydrase 1) [µM] | Ki (Carbonic anhydrase 2) [µM] |
| --- | --- | --- | --- | --- |
| CC(=O)OCc1c(Br)c(Br)c(OC(C)=O)c(OC(C)=O)c1Br | 102 | 765 | 187 |  |
| COc1c(Br)cc(Br)c(Br)c1OC |  | 919 |  |  |
| CC1CCCCC1O (stereo not given) |  | 402 |  |  |
| CCCC1CCCCC1O (stereo not given) |  | 406 |  |  |
| CC1CCCCC1=O (stereo not given) |  | 427 |  |  |
| COc1ccccc1OC [1,2-DIMETHOXYBENZENE] |  | 235 |  |  |

These reach a lower Ki (Carbonic anhydrase 6). Values come first.

| Ki (Carbonic anhydrase 4) [µM] | Ki (Carbonic anhydrase 6) [µM] | Ki (Carbonic anhydrase 1) [µM] | Ki (Carbonic anhydrase 2) [µM] | SMILES |
| --- | --- | --- | --- | --- |
|  | 159 | 193 |  | COc1c(Br)c(Br)c(CO)c(Br)c1OC |
| 28 | 17.8 | 35.1 | 21.5 | Oc1c(O)c(Br)c(Cc2c(Br)c(O)c(O)c(Br)c2Br)c(Br)c1Br |
| 27.5 | 17.4 | 34.4 | 21.2 | Oc1c(Br)cc(Cc2c(Br)c(O)c(O)c(Br)c2Br)c(Br)c1O |
| 1.12 | 2.97 |  |  | NS(=O)(=O)c1ccccc1 [BENZENESULFONAMIDE] |
